# Laboratory results from PMC2362650, “Phase I and pharmacokinetic study of the topoisomerase II catalytic inhibitor fostriecin” (British Journal of Cancer, 1999).
# Test system: solid tumour
# Assay: Tumour response in phase I patients
# Format: in vivo, human
# Settings: 2-20 mg m-2 day-1, days 1-5 every 4 weeks; 10 patients with measurable disease
# Excerpt: Fostriecin (CI-920) is a topoisomerase (topo) II catalytic activity inhibitor (Boritzki et al, 1988) (Figure 1). This novel class of topo II-targeting drugs is considered of potential value for treatment of patients with tumours resistant to classic topo II poisons, including anthracyclines and podophyllotoxins (Cummings and Smyth, 1993). The nuclear enzyme topo II is essential for the regulation of DNA conformation (reviewed in Osheroff et al, 1991). Central in its action is the formation of a complex with DNA. Stabilization of this complex by topo II poisons induces DNA damage and cell death (Froelich-Ammon and Osheroff, 1995). Decreased complex formation due to decreased topo II levels is considered to be an important mechanism of tumour-resistance to topo II poisons (Beck and Danks, 1991). The topo II catalytic inhibitor fostriecin is expected to have increased activity against tumour cells with low topo II levels and this was confirmed in in vitro studies (De Jong et al, 1991). […] Drug pharmacokinetics was analysed with high performance liquid chromatography with UV-detection. […] A metabolite, most probably dephosphorylated fostriecin, was detected in plasma and urine. […]
smiles,measurement,value
C[C@@](O)(/C=C/[C@H]1CC=CC(=O)O1)[C@@H](C[C@@H](O)\C=C/C=C\C=C\CO)OP(=O)(O)O [fostriecin],tumour responses,No tumour responses
